Results taken from US20250186646A1, “Use of Volatile Compositions to Limit or Eliminate Perception of Fecal Malodour” (Firmenich SA, priority 2016, published 2025).

What was measured:
[1] = Olfactory detection thresholds (ODT); conditions: gas phase
butyric acid = test: Reduction of perceived intensity of butyric acid by MOCs (Table 16); assay type: in vivo
butyric acid receptors = test: Ex vivo live neuron assay antagonism screening; assay type: cell-based, mice; conditions: butyric acid malodour target
Text: In the ex vivo live neuron assay, olfactory sensory neurons (OSNs) are extracted from the olfactory epithelium of mice and can be tested for responses to sequentially delivered stimuli, where responses are detected through live-cell calcium-imaging microscopy. It has been established through prior research in the field that the vast majority of extracted OSNs express 1 out of the approximately 1200 odourant receptors (ORs) present in the genome of a mouse, such that in our samples of extracted OSNs, the majority of the 1200 ORs should have been represented in at least one OSN. Since the responses of the OSNs to the delivered stimuli are entirely driven by the expressed OR, the OSNs selectively detect and collectively encode the identity and intensity of odourants. By stimulating the OSNs with MO molecules and measuring the response of each OSN, the subset in which a response is induced is those that detect and therefore presumably encode the MO. By subsequently delivering a mixture of MO and a candidate antagonist to the same cells, the degree of suppression of signal in each MO-responsive OSN can be determined (“level of inhibition”). […] In addition, the proportion of MO-responsive OSNs displaying low, medium and high inhibition was calculated. […]

[2] = test system: fecal malodour reconstitution; test: Olfactometer blind sensory evaluation of test and control formulations (Example 15); assay type: in vivo; set-up: Fecal Score / Freshness Score / Pleasantness Score: scale not given here; conditions: for Fecal Score: in combination with fecal reconstitution; for Fecal Score left: relative to fecal reconstitution alone (100)
Method: (§1) The performance of a test formulation containing LILYFLORE, Violet AT and Isoraldeine to counteract the fecal malodour perceived from a fecal malodour reconstitution was tested. The amount of each single ingredient in the test formulation was the same as the corresponding concentration of the ingredient that was incorporated into the Floral compositions. Separate control formulations were also included, comprising LILYFLORE, Violet AT and Isoraldeine separately, at the same concentration as each single ingredient in the test formulation. The sensory evaluation was blind, and performed using olfactometers and a set of more than 30 participants evaluating blind. In parallel, the headspace concentration of the ingredients from the test and three control formulations was determined.
as §1, with “of another” for “of a”, “and dihydrolinalol” for “and Isoraldeine”, “tested.” for “tested. The amount of each single ingredient in the test formulation was the same as the corresponding concentration of the ingredient that was incorporated into the Floral compositions.”
The performance of another test formulation containing LILYFLORE, isoraldeine, Violet AT and dihydrolinalol to counteract the fecal malodour perceived from a fecal malodour reconstitution was tested. Separate control formulations were also included, comprising LILYFLORE, Violet AT, isoraldeine and dihydrolinalol separately, at the same concentration as each single ingredient in the test formulation. The sensory evaluation was blind, and performed using olfactometers and a set of more than 30 participants evaluating blind. In parallel, the headspace concentration of the ingredients from the test and […] control formulations was determined.

## C=CC(C)(O)CCCC(C)C (racemic) [Dihydrolinalol, (+−)-3,7-DIMETHYL-1-OCTEN-3-OL]
[1]
  olfactory detection thresholds (ODT): 0.00137 µg/L
Butyric acid; concentration at which the MOC reduces the perceived intensity of butyric acid
  Butyric acid Dyn Conc: 0.76 µg/L
Butyric acid; perceived intensity of butyric acid, at the Dyn Conc
  Butyric acid Reduction: 64
Butyric acid receptors
  antagonism of malodour receptors: antagonist of butyric acid receptors
[2]; Table 19
  Fecal % Redn: 35%
  Freshness Score: 3.9
  Pleasantness Score: 3.5
  Fecal Score: 5.6
  Fecal Score left: 65
[2]; Table 20
  Fecal % Redn: 30%
  Freshness Score: 3.2
  Pleasantness Score: 3.2
  Fecal Score: 6.1
  Fecal Score left: 70
